# Test results published in PMC12587574, “Mass balance, pharmacokinetics, metabolism, and excretion of radiolabeled acoziborole, a potential novel treatment for human African trypanosomiasis, following single microtracer oral dose to humans” (Antimicrobial Agents and Chemotherapy, 2025).
# Like-named read-outs stand apart in the source and are kept apart here.
# Key:
# [1] = Plasma pharmacokinetics of acoziborole and SCYX-3109 by LC-MS/MS, phase I mass balance study; assay type: in vivo, human
# Description: This single-center, open-label, single group, non-randomized, single oral dose study was performed at Quotient Sciences Ltd (Ruddington, Nottingham, UK). Clinical trial authorization was obtained from the Medicines and Healthcare Products Regulatory Agency (UK). Approval for administration of [^14C]-acoziborole was obtained from an expert committee sponsored by the Department of Health and Social Care in the United Kingdom (Administration of Radioactive Substances Advisory Committee [ARSAC]), and from the ARSAC-accredited Quotient Sciences’ nuclear medicine practitioner. This study was approved by a local research ethics committee in the United Kingdom and was conducted in compliance with the Declaration of Helsinki and the International Conference on Harmonisation E6 Guideline for Good Clinical Practice. The study was registered in clinicaltrials.gov (NCT04270981) and in EudraCT (reference 2019-004059-35). Written informed consent was obtained from all participants before undertaking any study-related procedures.
# Participants were admitted in the evening of the day before dosing (Day −1) and were dosed in the morning of Day 1, following an overnight fast from food and drink of a minimum of 9 h. They remained fasted until approximately 4 h post-dose, at which time lunch was provided. Participants remained resident in the clinic until up to 240 h after dosing (up to Day 11). […] However, due to the COVID-19 pandemic, instead of returning for the outpatient visits, participants were requested to perform home collection of feces for a 48-h period (i.e., Days 31–33, Days 59–61, Days 89–91, and Days 119–121). Collected samples were couriered to the clinical unit at the end of each collection period. A follow-up call took place 5–10 days after the final outpatient visit to ensure the well-being of participants.
# Venous blood samples were collected via an indwelling cannula or by venepuncture. A 12 mL sample was taken into heparinized glass tube and chilled on ice immediately before IP administration and 3 mL samples were taken at 1, 4, 9, 12, 24, 48, 72, 96, 120, 144, 168, and 240 h and on Days 15, 31, 59, 89, and 119 after IP administration. The first 0.5 mL of blood withdrawn via cannula was discarded. One aliquot of heparinized whole blood (1 mL) per time point was stored at or below −20°C for total radioactivity analysis. The remaining blood was centrifuged, and the harvested plasma was stored at approximately −20°C for bioanalysis or transferred (exactly 1 mL) into polypropylene tubes pre-filled with 5 µL formic acid. One plasma sample (0.5 mL) was used for metabolite profiling while another (0.5 mL) was used for parent drug and SCYX-3109 metabolite analysis. The remaining plasma was used for total radioactivity analysis.
# (§1) SGS Belgium (Wavre, Belgium) performed the analysis to determine acoziborole and SCYX-3109 concentrations, using validated bioanalytical assays with liquid chromatography with tandem mass spectrometry (LC-MS/MS) with a Supelco Ascentis Express C8, 2.7 µm, 50 × 2.1 mm I.D. separation column. In plasma, the lower limit of quantification (LLOQ) was 25 ng/mL for acoziborole and 10 ng/mL for SCYX-3109. In urine, the LLOQ was 10 ng/mL for both acoziborole and SCYX-3109.
# PK parameters were calculated based on actual sampling times using standard non-compartmental analysis and WinNonlin version 8.1 software (Certara, Princeton, NJ, USA).
# The SCYX-3109 to parent ratios were calculated based on Cmax and AUC0–∞.
# [2] = Metabolite profiling and identification in pools of plasma, urine and feces (UPLC-MS, AMS); assay type: in vivo, human
# Description: Individual pools of plasma (0–336 h, including time points at 1, 4, 9, 12, 24, 48, 72, 96, 120, 168, 240, and 336 h), urine (0–240 h, including time intervals 0–6, 6–12, 12–24, 24–48, 48–72, 72–96, 96–120, 120–168, 168–192, 192–216, and 216–240 h) and feces homogenates (0–240 h, including time intervals 0–6, 6–12, 12–24, 24–48, 48–72, 72–96, 96–120, 120–168, and 168–240 h) were prepared; for plasma this was done according to the method described in reference and for feces by using equal percentages per time point based on total volume. Subsequently, a pool per matrix was prepared by mixing equal volumes of each participant pool. In addition, a plasma pre-dose pool was prepared by mixing equal volumes of each pre-dose sample. For urine and feces, TNO blank pool was used to generate a pre-dose sample. Samples were stored below −18°C. Samples (100 µL plasma, 250 µL urine, and 200 mg feces) were pre-treated and injected onto an ultra-high performance liquid chromatography (UPLC)-MS system (Acquity UPLC system [Waters] coupled to a Q-Exactive [Thermo]; Acquity HSS C18 VanGuard 5 mm × 2.1 mm, 1.8 µm [Waters] pre-column and Acquity HSS C18 100 mm × 2.1 mm, 1.8 µm d.p. [Waters]). Fractions were collected and analyzed off-line by AMS. AMS analysis was performed on an AMS system, consisting of an elemental analyzer, a double gas interface, and a 1 MV multi-element AMS. All fecal homogenate sample analyzes were performed in triplicate. Plasma pre-dose and TNO blank urine and feces pools were used for background correction. The UPLC method qualification included determination of retention time stability and extraction recovery. Metabolites were tentatively assigned to fractions in which activity greater than the baseline was observed, based on retention time and structural information provided by DNDi. Presence of the metabolite was confirmed by accurate mass data from high-resolution mass spectrometric analysis.
# [3] = set-up: method as in PMID 36763327; conditions: human, after acoziborole; cited from earlier work
# [4] = set-up: method as in PMID 21707314; conditions: cited from earlier work
# [5] = Urinary excretion / renal clearance of acoziborole and SCYX-3109 by LC-MS/MS; assay type: in vivo; conditions: male, human, urine and plasma; CumAe0–240h/AUC0–240h; mean ± SD; 960 mg single oral dose of acoziborole; read-out: renal clearance CLr0–240h (converted)
# Description: Urine samples were collected before IP administration (single urine void) and then during intervals of 0–6, 6–12, 12–24, 24–48, 48–72, 72–96, 96–120, 120–168, 168–192, 192–216, and 216–240 h post-dose and for the additional 48-h collection period starting on Day 15 post-dose, that is, 336–384 h. Samples were acidified with citric acid to avoid acoziborole degradation and were refrigerated until the end of the block collection periods. The total weight and volume of urine were then recorded. At the end of each collection period, two aliquots of acidified urine (20 mL) were taken from the sample and stored in polypropylene tubes at −20°C until further analysis for total radioactivity. Two aliquots of 1 mL acidified urine were collected into tubes containing bovine serum albumin in aqueous solution (to avoid non-specific adsorption of acoziborole) and NaCl for acoziborole and SCYX-3109 assays. […]
# as §1, with “In urine, the LLOQ was 10 ng/mL for both acoziborole and SCYX-3109.” left out
smiles,measurement,setting,value
CC(C)(O)c1ccc(NC(=O)c2ccc(F)cc2C(F)(F)F)cc1O [SCYX-3109],AUC(0-t),"[1]; human, plasma, po, 960 mg, 960 mg single oral dose of acoziborole, N = 6, mean ± SD, read-out: AUC0–240h in plasma",4370 ± 1020 ng·h/mL
same,AUC(0-t),"[1]; human, plasma, po, 960 mg, 960 mg single oral dose of acoziborole, N = 6, mean ± SD, read-out: AUC0–t in plasma",3730 ± 2320 ng·h/mL
same,Tmax,"[1]; human, plasma, po, 960 mg, 960 mg single oral dose of acoziborole, N = 6, mean ± SD, read-out: tmax in plasma",76.1 ± 28 h
same,Cmax,"[1]; male, human, plasma, 960 mg single oral dose of acoziborole, healthy males, N = 6, mean ± SD",30.5 ± 10.7 ng/mL
same,"plasma level relative to acoziborole, AUC0–240h ratio","[1]; over the 240-h period, 960 mg single oral dose",0.2%
same,"proportion of the dose excreted, urine and feces combined",[2]; 0–240 h pools,12.3%
same,"abundance relative to dose, feces",[2]; feces homogenates 0–240 h,12.3%
same,"relative abundance in radiochromatogram, feces homogenates pool",[2]; feces homogenates 0–240 h,24.2%
same,"relative abundance in radiochromatogram (share of total radioactivity), plasma pool","[2]; plasma pool 0–336 h, 960 mg single oral [14C]-acoziborole",could not be detected
same,plasma concentrations at all time points,[3],very low
same,activity of the metabolite,[4],inactive
same,CL renal,[5],0.6 mL/min
